These results are taken from patent US20260125382A1, “COMPOUNDS FOR INHIBITING OR DEGRADING CDK2 AND/OR CDK9 AND MEDICINAL USE THEREOF” (KOREA RESEARCH INSTITUTE OF CHEMICAL TECHNOLOGY, priority 2022, published 2026).

Test [1] deals with T1, CDK9 (Homo sapiens, UniProt P50750).
T1 construct: endogenous in cells; host or cells: MDA-MB-231
The test can be described thus: CDK protein degradation activity (Western blotting), CDK9. The following applies: MDA-MB-231 cells, 16 hours, Western blot. The test is classed as cell-based. The essentials:
(§1)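 Protein levels were read by Western blot densitometry, tubulin serving as loading reference. Beforehand, MDA-MB-231 cells had been exposed for 16 hours to 100 nM, 1 μM or 10 μM compound, DMSO as control.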
On the technique in general: Immunoblotting shows a protein as a band on a membrane.

Test [2] concerns the target T2, CDK2 (Homo sapiens, UniProt P24941).
T2 construct: endogenous in cells; host or cells: MDA-MB-231
Briefly: CDK protein degradation activity (Western blotting), CDK2. The following applies: MDA-MB-231 cells, 16 hours, Western blot. The test is classed as cell-based. In a few lines:
as §1

T1 sequence (P50750 whole entry): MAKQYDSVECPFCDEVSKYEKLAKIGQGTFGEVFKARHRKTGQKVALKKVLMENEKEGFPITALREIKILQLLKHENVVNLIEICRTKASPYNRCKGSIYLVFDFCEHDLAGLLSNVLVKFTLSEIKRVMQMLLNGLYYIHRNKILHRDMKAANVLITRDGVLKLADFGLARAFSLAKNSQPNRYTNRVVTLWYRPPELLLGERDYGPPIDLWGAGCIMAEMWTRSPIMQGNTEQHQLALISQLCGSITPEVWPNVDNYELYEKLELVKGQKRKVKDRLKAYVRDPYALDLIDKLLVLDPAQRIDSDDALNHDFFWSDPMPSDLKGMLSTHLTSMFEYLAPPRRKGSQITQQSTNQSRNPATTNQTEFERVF

With `O=C1CCC(N2C(=O)c3cccc(OCC(=O)N4CCC5(CC4)CC(N4CCC(c6ccc(Nc7ncnc8c7ncn8[C@H]7C[C@@H](NC(=O)Cc8ccccc8)C7)cc6)CC4)C5)c3C2=O)C(=O)N1` (stereo partly drawn) [Compound 293, N-((1s,3s)-3-(6-((4-(1-(7-(2-((2-(2,6-dioxopiperidin-3-yl)-1,3-dioxoisoindolin-4-yl)oxy)acetyl)-7-azaspiro[3.5]nonan-2-yl)piperidin-4-yl)phenyl)amino)-9H-purin-9-yl)cyclobutyl)-2-phenylacetamide], in test [1], the “Enzyme degradation CDK9 (% remaining) @ 0.1 μM” value is 0/0/0%, the “Enzyme degradation CDK9 (% remaining) @ 1 μM” value is listed as 0/0/0% and the “Enzyme degradation CDK9 (% remaining) @ 10 μM” value is recorded as 0/0/0%. Besides, in test [2], the “Enzyme degradation CDK2 (% remaining) @ 0.1 μM” value is given as 0/0/0%, the “Enzyme degradation CDK2 (% remaining) @ 1 μM” value was 0/0/0% and the “Enzyme degradation CDK2 (% remaining) @ 10 μM” value is given as 0/0/0%.
In the case of `COc1ccc(C(=O)NC[C@H]2CC[C@H](CN3CCN(c4ccc(Nc5ncnc6c5ncn6[C@H]5C[C@@H](NC(=O)Cc6ccccc6)C5)cc4)CC3)CC2)cc1N1CCC(=O)NC1=O` [Compound 198, 3-(2,4-dioxotetrahydropyrimidin-1(2H)-yl)-4-methoxy-N-(((1r,4r)-4-((4-(4-((9-((1s,3s)-3-(2-phenylacetamido)cyclobutyl)-9H-purin-6-yl)amino)phenyl)piperazin-1-yl)methyl)cyclohexyl)methyl)benzamide], in test [1], the “Enzyme degradation CDK9 (% remaining) @ 0.1 μM” value was determined as 50%, the “Enzyme degradation CDK9 (% remaining) @ 1 μM” value is reported as 30% and the “Enzyme degradation CDK9 (% remaining) @ 10 μM” value came out at 10%. Besides, in test [2], the “Enzyme degradation CDK2 (% remaining) @ 0.1 μM” value is listed as 0/0/0%, the “Enzyme degradation CDK2 (% remaining) @ 1 μM” value is 0/0/0% and the “Enzyme degradation CDK2 (% remaining) @ 10 μM” value is recorded as 0/0/0%.
On to `Cc1cccc(C(=O)NC2CC(n3cnc4c(NCCC5CCN(CC6CCN(c7ccc8c(c7)C(=O)N([C@H]7CCC(=O)NC7=O)C8=O)CC6)CC5)ncnc43)C2)n1` (stereo partly drawn) [Compound 308, N-((1s,3s)-3-(6-((2-(1-((1-(2-(2,6-dioxopiperidin-3-yl)-1,3-dioxoisoindolin-5-yl)piperidin-4-yl)methyl)piperidin-4-yl)ethyl)amino)-9H-purin-9-yl)cyclobutyl)-6-methylpicolinamide], for which, in test [1], the “Enzyme degradation CDK9 (% remaining) @ 0.1 μM” value came to 20%, the “Enzyme degradation CDK9 (% remaining) @ 1 μM” value is given as 0% and the “Enzyme degradation CDK9 (% remaining) @ 10 μM” value worked out at 20%. In test [2], the “Enzyme degradation CDK2 (% remaining) @ 0.1 μM” value was 40%, the “Enzyme degradation CDK2 (% remaining) @ 1 μM” value worked out at 30% and the “Enzyme degradation CDK2 (% remaining) @ 10 μM” value is reported as 30%.
With `O=C1CCC(N2C(=O)c3ccc(N4CCC(C(=O)N5CCN(CC6CCN(c7ccc(Nc8ncnc9c8ncn9[C@H]8C[C@@H](NC(=O)c9c(Cl)cccc9Cl)C8)cc7)CC6)CC5)CC4)cc3C2=O)C(=O)N1` (stereo partly drawn) [Compound 474, 2,6-dichloro-N-((1s,3s)-3-(6-((4-(4-((4-(1-(2-(2,6-dioxopiperidin-3-yl)-1,3-dioxoisoindolin-5-yl)piperidin-4-carbonyl)piperazin-1-yl)methyl)piperidin-1-yl)phenyl)amino)-9H-purin-9-yl)cyclobutyl)benzamide], in test [1], the “Enzyme degradation CDK9 (% remaining) @ 0.1 μM” value is recorded as 10%, the “Enzyme degradation CDK9 (% remaining) @ 1 μM” value came to 0% and the “Enzyme degradation CDK9 (% remaining) @ 10 μM” value was 0%. In test [2], the “Enzyme degradation CDK2 (% remaining) @ 0.1 μM” value was 20%, the “Enzyme degradation CDK2 (% remaining) @ 1 μM” value is 30% and the “Enzyme degradation CDK2 (% remaining) @ 10 μM” value was 30%.
